Assay results: patent publication US20080293696A1, “2-Aminoarylcarboxamides Useful as Cancer Chemotherapeutic Agents” (Bayer Pharmaceuticals Corporation, priority 2004, published 2008)
Structures can show the parent of a compound that is named as a salt.

tested on: PAKT/PKB (p-(S473) AKT) in H209 small cell lung carcinoma cells stimulated with Stem Cell Factor; assay: PAKT/PKB Cytoblot Assay with H209 cells (SCF-stimulated p-(S473) AKT); type: cell-based; details: Homo sapiens, NCI-H209, compound 1 hour, SCF 25 ng/mL 5 minutes, group: between 500 nM and 1 μM (units in value)
Description: PAKT/PKB Cytoblot Assay Protocol with H209 Cells
H209 small cell lung carcinoma cells in log phase were plated at 50,000 cells/well in 96-well poly-lysine coated, clear bottom/black-sided plates (BD Cat # 354640) in 100 μl RPMI medium containing 0.1% (w/v) BSA, and incubated overnight at 37° C. in 5% CO2 incubator. The following day, compounds (10 mM stock solutions in DMSO) were added to the plates to generate final concentrations of 0.0, 0.01, 0.03, 0.1, 0.3, 1.0, 3.0 and 10 μM for IC50 determinations and incubated for 1 hour at 37° C. Cells were then left untreated or stimulated with Stem Cell Factor (SCF: Biosource Cat # PHC2116) at a final concentration of 25 ng/mL for 5 minutes at 37° C. in 5% CO2 incubator. The media was then removed using a vacuum manifold and the cells were washed once with Tris Buffered Saline (TBS).
Cells were then fixed by adding 200 μl of cold 3.7% (v/v) formaldehyde in TBS to each well for 15 minutes at 4° C. After removal of the formaldehyde, the cells were treated with the addition of 50 μl of methanol (at −20° C.) to each well for 5 minutes. After removal of the methanol, […] of 1% (w/v) BSA in TBS was added to each well to block non-specific antibody binding sites and the plate was incubated at room temperature for 30 minutes.
After removal of the blocking buffer, 50 μl of p-(S473) AKT rabbit polyclonal antibody (Cell Signaling Cat # 9277S) was added at a dilution of 1:250 in 0.1% (w/v) BSA in TBS, and the plate was incubated at room temperature for 1 hour. Plates were then washed 3 times with cold TBS containing 0.05% (v/v) Tween 20 (TBS-T) and […] of Horseradish peroxidase (HRP)-conjugated goat-anti-rabbit antibody (Amersham Cat # NA934V) at a dilution of 1:250 in TBS-T was added and the plate was incubated at room temperature for 1 h. After washing with ice-cold TBS-T four times, 100 μl of Enhanced Chemiluminescence (ECL) reagent (Amersham Cat# RPN2209) was added to each well and mixed on a mini-orbital shaker for 1 min. The plate was then read on a Perkin Elmer Victor 5 Multilabel Counter (#1420-0421).

IC50 [nM]	SMILES
500 to 1000	CCN(CC)CCCC(C)NC(=O)c1cc(CNc2ccccc2C(=O)Nc2ccc3c(c2)OC(F)(F)O3)ccn1 (centres unmarked) [Example 108, N-[4-(diethylamino)-1-methylbutyl]-4-{[(2-{[(2,2-difluoro-1,3-benzodioxol-5-yl)amino]carbonyl}phenyl)amino]methyl}pyridine-2-carboxamide]
500 to 1000	N#Cc1cc(CNc2cc(F)ccc2C(=O)Nc2ccc3c(c2)OC(F)(F)C(F)(F)O3)ccn1 [Example 28, 2-{[(2-cyanopyridin-4-yl)methyl]amino}-4-fluoro-N-(2,2,3,3-tetrafluoro-2,3-dihydro-1,4-benzodioxin-6-yl)benzamide]
500 to 1000	CC1(C)OCC(CNC(=O)c2cc(CNc3ccccc3C(=O)Nc3ccc4c(c3)OC(F)(F)O4)ccn2)O1 (centres unmarked) [Example 78, 4-{[(2-{[(2,2-Difluoro-1,3-benzodioxol-5-yl)amino]carbonyl}phenyl)amino]methyl}-N-[(2,2-dimethyl-1,3-dioxolan-4-yl)methyl]pyridine-2-carboxamide]
500 to 1000	CCNC(=O)c1cc(CNc2cc(F)c(F)cc2C(=O)Nc2ccc3c(c2)OC(F)(F)C(F)(F)O3)ccn1 [Example 43, 4-{[(4,5-difluoro-2-{[(2,2,3,3-tetrafluoro-2,3-dihydro-1,4-benzodioxin-6-yl)amino]carbonyl}phenyl)amino]methyl}-N-ethylpyridine-2-carboxamide]
500 to 1000	COc1cccc(C(=O)Nc2ccc3c(c2)C(F)(F)OC(F)(F)O3)c1NCc1ccncc1 [Example 8, 3-methoxy-2-[(pyridin-4-ylmethyl)amino]-N-(2,2,4,4-tetrafluoro-4H-1,3-benzodioxin-6-yl)benzamide]
500 to 1000	CN(C)C(=O)c1cc(CNc2ccccc2C(=O)Nc2ccc3c(c2)OC(F)(F)O3)ccn1 [Example 80, 4-{[(2-{[(2,2-Difluoro-1,3-benzodioxol-5-yl)amino]carbonyl}phenyl)amino]methyl}-N,N-dimethylpyridine-2-carboxamide]

same assay, conditions: Homo sapiens, NCI-H209, compound 1 hour, SCF 25 ng/mL 5 minutes, group: between 1 and 3 μM

IC50 [nM]	SMILES
1000 to 3000	CC(CN(C)C)NC(=O)c1cc(CNc2ccccc2C(=O)Nc2ccc3c(c2)OC(F)(F)O3)ccn1 (centres unmarked) [Example 116, 4-{[(2-{[(2,2-difluoro-1,3-benzodioxol-5-yl)amino]carbonyl}phenyl)amino]methyl}-N-[2-(dimethylamino)-1-methylethyl]pyridine-2-carboxamide]
1000 to 3000	CN(CCCNC(=O)c1cc(CNc2ccccc2C(=O)Nc2ccc3c(c2)OC(F)(F)O3)ccn1)c1ccccc1 [Example 107, 4-{[(2-{[(2,2-difluoro-1,3-benzodioxol-5-yl)amino]carbonyl}phenyl)amino]methyl}-N-{3-[methyl(phenyl)amino]propyl}pyridine-2-carboxamide]
1000 to 3000	O=C(NCCc1cccs1)c1cc(CNc2ccccc2C(=O)Nc2ccc3c(c2)OC(F)(F)O3)ccn1 [Example 128, 4-{[(2-{[(2,2-difluoro-1,3-benzodioxol-5-yl)amino]carbonyl}phenyl)amino]methyl}-N-[2-(2-thienyl)ethyl]pyridine-2-carboxamide]
1000 to 3000	N#Cc1cc(CNc2ccc(F)cc2C(=O)Nc2ccc3c(c2)OC(F)(F)C(F)(F)O3)ccn1 [Example 27, 2-{[(2-cyanopyridin-4-yl)methyl]amino}-5-fluoro-N-(2,2,3,3-tetrafluoro-2,3-dihydro-1,4-benzodioxin-6-yl)benzamide]
1000 to 3000	COc1ccc(NCc2ccncc2)c(C(=O)Nc2ccc3c(c2)OC(F)(F)C(F)(F)O3)c1 [Example 1, 5-methoxy-2-[(pyridin-4-ylmethyl)amino]-N-(2,2,3,3-tetrafluoro-2,3-dihydro-1,4-benzodioxin-6-yl)benzamide]

same assay, conditions: Homo sapiens, NCI-H209, compound 1 hour, SCF 25 ng/mL 5 minutes, group: less than 500 nM

IC50 [nM]	SMILES
< 500	COc1ccc(OCC(O)CNC(=O)c2cc(CNc3ccccc3C(=O)Nc3ccc4c(c3)OC(F)(F)O4)ccn2)cc1 (centres unmarked) [Example 132, 4-{[(2-{[(2,2-difluoro-1,3-benzodioxol-5-yl)amino]carbonyl}phenyl)amino]methyl}-N-[2-hydroxy-3-(4-methoxyphenoxy)propyl]pyridine-2-carboxamide]
< 500	CN(C)c1nccc(CNc2ccccc2C(=O)Nc2ccc3c(c2)OC(F)(F)O3)n1 [Example 48, N-(2,2-difluoro-1,3-benzodioxol-5-yl)-2-({[2-(dimethylamino)pyrimidin-4-yl]methyl}amino)benzamide]
< 500	N#Cc1cc(CNc2ccccc2C(=O)Nc2ccc3c(c2)OC(F)(F)O3)ccn1 [Example 25, 2-{[(2-cyanopyridin-4-yl)methyl]amino}-N-(2,2-difluoro-1,3-benzodioxol-5-yl)benzamide]
< 500	N#Cc1cc(CNc2cc(F)ccc2C(=O)Nc2ccc3c(c2)OC(F)(F)O3)ccn1 [Example 29, 2-{[(2-cyanopyridin-4-yl)methyl]amino}-N-(2,2-difluoro-1,3-benzodioxol-5-yl)-4-fluorobenzamide]
< 500	O=C(Nc1ccc2c(c1)OC(F)(F)O2)c1ccccc1NCc1ccnc(NCCCO)c1 [Example 137, N-(2,2-difluoro-1,3-benzodioxol-5-yl)-2-[({2-[(3-hydroxypropyl)amino]pyridin-4-yl}methyl)amino]benzamide trifluoroacetate(salt)]
< 500	CCNC(=O)Nc1cc(CNc2ccccc2C(=O)Nc2ccc3c(c2)OC(F)(F)O3)ccn1 [Example 162, N-(2,2-difluoro-1,3-benzodioxol-5-yl)-2-{[(2-{[(ethylamino)carbonyl]amino}pyridin-4-yl)methyl]amino}benzamide]
< 500	O=C(Nc1ccc2c(c1)OC(F)(F)C(F)(F)O2)c1cc(F)ccc1NCc1ccncc1 [Example 19, 5-fluoro-2-[(pyridin-4-ylmethyl)amino]-N-(2,2,3,3-tetrafluoro-2,3-dihydro-1,4-benzodioxin-6-yl)benzamide]
< 500	CNC(=O)c1cc(CNc2ccccc2C(=O)Nc2ccc3c(c2)C(F)(F)OC(F)(F)O3)ccn1 [Example 4, N-methyl-4-{[(2-{[(2,2,4,4-tetrafluoro-4H-1,3-benzodioxin-6-yl)amino]carbonyl}phenyl)amino]methyl}pyridine-2-carboxamide]
< 500	CNC(=O)c1cc(CNc2ccccc2C(=O)Nc2ccc3c(c2)OC(F)(F)O3)ccn1 [Example 24, 4-{[(2-{[(2,2-difluoro-1,3-benzodioxol-5-yl)amino]carbonyl}phenyl)amino]methyl}-N-methylpyridine-2-carboxamide]
< 500	CCNC(=O)c1cc(CNc2ccccc2C(=O)Nc2ccc3c(c2)OC(F)(F)C(F)(F)O3)ccn1 [Example 44, N-ethyl-4-{[(2-{[(2,2,3,3-tetrafluoro-2,3-dihydro-1,4-benzodioxin-6-yl)amino]carbonyl}phenyl)amino]methyl}pyridine-2-carboxamide]
< 500	COCCNc1cc(CNc2ccccc2C(=O)Nc2ccc3c(c2)OC(F)(F)O3)ccn1 [Example 135, N-(2,2-difluoro-1,3-benzodioxol-5-yl)-2-[({2-[(2-methoxyethyl)amino]pyridin-4-yl}methyl)amino]benzamide trifluoroacetate]
< 500	CN1CCCC1CCNc1cc(CNc2ccccc2C(=O)Nc2ccc3c(c2)OC(F)(F)O3)ccn1 (centres unmarked) [Example 145, N-(2,2-difluoro-1,3-benzodioxol-5-yl)-2-{[(2-{[2-(1-methylpyrrolidin-2-yl)ethyl]amino}pyridin-4-yl)methyl]amino}benzamidebis(trifluoroacetate)]
< 500	COCCCNc1cc(CNc2ccccc2C(=O)Nc2ccc3c(c2)OC(F)(F)O3)ccn1 [Example 136, N-(2,2-difluoro-1,3-benzodioxol-5-yl)-2-[({2-[(3-methoxypropyl)amino]pyridin-4-yl}methyl)amino]benzamide trifluoroacetate]
< 500	NC(=O)CCNC(=O)c1cc(CNc2ccccc2C(=O)Nc2ccc3c(c2)OC(F)(F)O3)ccn1 [Example 95, N-(3-amino-3-oxopropyl)-4-{[(2{[(2,2-difluoro-1,3-benzodioxol-5-yl)amino]carbonyl}phenyl)amino]methyl}pyridine-2-carboxamide]
< 500	CC(C)OCCCNC(=O)c1cc(CNc2ccccc2C(=O)Nc2ccc3c(c2)OC(F)(F)O3)ccn1 [Example 111, 4-{[(2-{[(2,2-difluoro-1,3-benzodioxol-5-yl)amino]carbonyl}phenyl)amino]methyl}-N-(3-isopropoxypropyl)pyridine-2-carboxamide]
